Here are results for 23 compounds from patent publication US12098139B2, “Chemokine receptor modulators and uses thereof” (RAPT Therapeutics, Inc., priority 2018, dated 2024).

Molecules are shown by their SMILES. Bounds are passed on as bounds.

One assay concerns the target T1, hCCR4 (Chem5-hCCR4 cells) (Homo sapiens, UniProt P51679).
T1 sequence (P51679 1-360): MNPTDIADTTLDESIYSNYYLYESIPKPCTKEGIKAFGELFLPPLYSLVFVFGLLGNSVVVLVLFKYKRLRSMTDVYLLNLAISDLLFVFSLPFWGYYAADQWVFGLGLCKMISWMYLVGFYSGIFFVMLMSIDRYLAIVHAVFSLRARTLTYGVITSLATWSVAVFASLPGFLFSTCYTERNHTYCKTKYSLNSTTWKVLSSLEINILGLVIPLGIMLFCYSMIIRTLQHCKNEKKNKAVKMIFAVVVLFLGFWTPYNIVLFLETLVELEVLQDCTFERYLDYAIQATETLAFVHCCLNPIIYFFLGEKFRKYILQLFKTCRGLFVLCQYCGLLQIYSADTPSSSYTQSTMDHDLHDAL
The assay can be described thus: Calcium flux assay (CCL22-stimulated, FLIPR Calcium 6 dye). Type of assay: cell-based. The conditions noted are these: Table 3, CCL22 1.5 nM, read-out: Potency (IC50). The procedure: Calcium Flux Assay. Compounds were evaluated in a calcium flux assay substantially performed as follows. Chem5-hCCR4 cells (EMD Millipore, Hayward, CA; HTS009C) were cultured under standard conditions and frozen in aliquots of 10×10^6 cells/mL. The day prior to compound testing, a vial was rapidly thawed and pipetted into 20 mL media (DMEM+10% FBS+1% Pen-Strep+1% L-glutamine). Cells were harvested by centrifugation and re-suspended in fresh culture medium. 25 μL of cell suspension was seeded into 384-well plates (Corning, Tewksbury, MA; CellBind with black wall/clear bottom). The plates were centrifuged at 300 g for 10 seconds and incubated overnight at 37° C. and 5% CO2. The day of compound testing, media was removed from the plates and 25 μL serum free media was added to each well. Plates were returned to the incubator for 2 h. 25 μL assay buffer (Hank's balanced salt solution+20 mM HEPES pH 7.4) containing FLIPR Calcium 6 dye (Molecular Devices, Sunnyvale, CA; #R8191) and probenecid (2.5 mM) was added to each well and incubated at 37° C. and 5% CO2 for 2 h. Compounds in DMSO were added to the plates using an HP D300e digital dispenser, and all wells were normalized to contain 0.25 μL (0.5%) DMSO. Plates were incubated for 1 hour at 37° C. and 5% CO2. CCL22 (Peprotech; Rockyhill, NJ) was diluted in assay buffer containing 0.1% BSA to 7.5 nM (corresponding to 5×EC80 of 1.5 nM).
Assay plates and working solution of CCL22 were transferred to the FlexStation plate reader (Molecular Devices) at 37° C. for 5 min of equilibration. Fluorescence recordings at 485 excitation/525 emission were performed at 2.5 second intervals. At t=16 seconds, 12.5 μL of CCL22 solution was added to each well and reads continued for 30 seconds at 2.5 second intervals. The minimum fluorescence (Fmin) was calculated by averaging the reads prior to ligand addition and the change in fluorescence (ΔF) was calculated by subtracting the Fmin from the average of the reads following ligand addition. The response ΔF/Fmin was plotted as a function of the compound concentration and the IC50 values were determined by non-linear regression analysis using a 4-parameter fit in either PRISM software (GraphPad; La Jolla, CA) or Dotmatics Browser.
Background: Calcium flux is commonly read through the fluorescence of an indicator in the cells.
As to `C[C@@H](Nc1nc(N2CC([C@H]3CCCN([C@H]4C[C@](C)(C(=O)O)C4)C3)C2)nc(C(F)(F)F)c1Cl)c1ccc(Cl)cc1Cl` [Example 37, (1R,3r)-3-((R)-3-(1-(5-chloro-4-(((R)-1-(2,4-dichlorophenyl)ethyl)amino)-6-(trifluoromethyl)pyrimidin-2-yl)azetidin-3-yl)piperidin-1-yl)-1-methylcyclobutane-1-carboxylic acid], the IC50 (usually the concentration needed to halve the response being measured) is less than 100 nM.
Turning to `C[C@@H](Nc1nc(N2CC([C@H]3CCCN(CCO)C3)C2)cnc1C#N)c1ccc(S(C)(=O)=O)cc1Cl` [Example 7, 3-(((R)-1-(2-chloro-4-(methylsulfonyl)phenyl)ethyl)amino)-5-(3-((R)-1-(2-hydroxyethyl)piperidin-3-yl)azetidin-1-yl)pyrazine-2-carbonitrile], the IC50 was greater than 500 nM.
On the same count and under the same terms, for `C[C@@H](Nc1nc(N2CC([C@H]3CCCN(CCO)C3)C2)ncc1F)c1ccc(Cl)cc1Cl` [Example 48, 2-((R)-3-(1-(4-(((R)-1-(2,4-dichlorophenyl)ethyl)amino)-5-fluoropyrimidin-2-yl)azetidin-3-yl)piperidin-1-yl)ethan-1-ol] the value was 100 to 500 nM; for `C[C@@H](Nc1nc(N2CC([C@H]3CCCN([C@H]4C[C@@H](C(=O)O)C4)C3)C2)cnc1C#N)c1ccc(Cl)cc1Cl` [Example 5, (1S,3s)-3-((R)-3-(1-(5-cyano-6-(((R)-1-(2,4-dichlorophenyl)ethyl)amino)pyrazin-2-yl)azetidin-3-yl)piperidin-1-yl)cyclobutane-1-carboxylic acid], 100 to 500 nM.
With `C[C@@H](Nc1nc(N2CC([C@H]3CCCN(CCO)C3)C2)ncc1Cl)c1ccc(F)cc1Cl` [Example 44, 2-((R)-3-(1-(5-chloro-4-(((R)-1-(2-chloro-4-fluorophenyl)ethyl)amino)pyrimidin-2-yl)azetidin-3-yl)piperidin-1-yl)ethan-1-ol], the IC50 is 100 to 500 nM.
Same read-out and setting: the value for `C[C@]1(C(=O)O)C[C@H](N2CCC[C@H](C3CN(c4ncc(Cl)c(NCc5ccc(Cl)cc5Cl)n4)C3)C2)C1` [Example 21, (1R,3r)-3-((R)-3-(1-(5-chloro-4-((2,4-dichlorobenzyl)amino)pyrimidin-2-yl)azetidin-3-yl)piperidin-1-yl)-1-methylcyclobutane-1-carboxylic acid] was greater than 500 nM; that for `C[C@@H](Nc1nc(N2CC([C@H]3CCCN(CCO)C3)C2)nc2c1CCC2)c1ccc(Cl)cc1Cl` [Example 24, 2-((R)-3-(1-(4-(((R)-1-(2,4-dichlorophenyl)ethyl)amino)-6,7-dihydro-5H-cyclopenta[d]pyrimidin-2-yl)azetidin-3-yl)piperidin-1-yl)ethan-1-ol] was 100 to 500 nM; that for `C[C@@H](Nc1nc(N2CC([C@H]3CCCN([C@H]4C[C@@H](C(=O)O)C4)C3)C2)ncc1F)c1ccc(Cl)cc1Cl` [Example 46, (1S,3s)-3-((R)-3-(1-(4-(((R)-1-(2,4-dichlorophenyl)ethyl)amino)-5-fluoropyrimidin-2-yl)azetidin-3-yl)piperidin-1-yl)cyclobutane-1-carboxylic acid] was greater than 500 nM.
Consider `CCOC(=O)c1cnc(N2CC([C@H]3CCCN(CCO)C3)C2)nc1N[C@H](C)c1ccc(Cl)cc1Cl` [Example 32, ethyl 4-(((R)-1-(2,4-dichlorophenyl)ethyl)amino)-2-(3-((R)-1-(2-hydroxyethyl)piperidin-3-yl)azetidin-1-yl)pyrimidine-5-carboxylate], for which the IC50 is less than 100 nM.

The same assay, now with this note: Table 4, CCL22 1.5 nM, read-out: Potency (IC50).
As for `C[C@@H](Nc1cnc(C#N)c(N2CC([C@H]3CCCN(C4CC(C)(C(=O)O)C4)C3)C2)n1)c1ccc(Cl)cc1Cl` (single isomer, unassigned) [Example 52], the IC50 was greater than 500 nM.
For `C[C@@H](Nc1nc(N2CC([C@H]3CCCN(C4CC(C)(C(=O)O)C4)C3)C2)cnc1C#N)c1ccc(Cl)cc1Cl` (stereo partly drawn) [Example 51, 3-[(1S,3R)-3-[1-[5-cyano-6-[[(1R)-1-(2,4-dichlorophenyl)ethyl]amino]pyrazin-2-yl]azetidin-3-yl]-1-piperidyl]-1-methyl-cyclobutanecarboxylic acid; 2,2,2-trifluoroacetic acid], the half-inhibitory concentration (IC50) is greater than 500 nM.

The same assay, now with this note: Table 5, CCL22 1.5 nM, read-out: Potency (IC50).
Take `C[C@@H](Nc1nc(N2CC(C3CCCN([C@H]4C[C@@H](O)C4)C3C(=O)O)C2)ncc1Cl)c1ccc(Cl)cc1Cl` (stereo partly drawn) [Example 87, 3-[1-[5-chloro-4-[[(1R)-1-(2,4-dichlorophenyl)ethyl]amino]pyrimidin-2-yl]azetidin-3-yl]-1-(3-hydroxycyclobutyl)piperidine-2-carboxylic acid; 2,2,2-trifluoroacetic acid]: the IC50 was less than 100 nM.
On the same count and under the same terms, for `CC(Nc1nc(N2CC([C@H]3CCCN(CCO)C3)C2)ncc1Cl)c1ccc(Cl)cc1F` (stereo partly drawn) [Example 63, 2-[(3R)-3-[1-[5-chloro-4-[1-(4-chloro-2-fluoro-phenyl)ethylamino]pyrimidin-2-yl]azetidin-3-yl]-1-piperidyl]ethanol; 2,2,2-trifluoroacetic acid] the value was less than 100 nM; for `COc1cc(N[C@H](C)c2ccc(Cl)cc2Cl)nc(N2CC([C@H]3CCCN(C4CC(C)(C(=O)O)C4)C3)C2)n1` (single isomer, unassigned) [Example 82], greater than 500 nM.
Same read-out and setting: the value for `C[C@@H](Nc1nc(N2CC([C@H]3CCCN(C4CC(C)(C(=O)O)C4)C3)C2)nc(CF)c1Cl)c1ccc(Cl)cc1Cl` (single isomer, unassigned) [Example 89] was less than 100 nM; that for `C[C@@H](Nc1nc(N2CC(C3CCCN(C4CC(CO)C4)C3C(=O)O)C2)ncc1Cl)c1ccc(Cl)cc1Cl` (stereo partly drawn) [Example 88, 3-[1-[5-chloro-4-[[(1R)-1-(2,4-dichlorophenyl)ethyl]amino]pyrimidin-2-yl]azetidin-3-yl]-1-[3-(hydroxymethyl)cyclobutyl]piperidine-2-carboxylic acid; 2,2,2-trifluoroacetic acid] was less than 100 nM; that for `C[C@@H](Nc1cc(C(F)(F)F)nc(N2CC([C@H]3CCCN([C@H]4C[C@](C)(C(=O)O)C4)C3)C2)n1)c1ccc(Cl)cc1Cl` [Example 59, 3-[(1R)-3-[1-[4-[[(1R)-1-(2,4-dichlorophenyl)ethyl]amino]-6-(trifluoromethyl)pyrimidin-2-yl]azetidin-3-yl]-1-piperidyl]-1-methyl-cyclobutanecarboxylic acid] was 100 to 500 nM.
Consider `C[C@@H](Nc1nc(N2CC([C@H]3CCCN(C4CC(C)(C(=O)O)C4)C3)C2)nc2scnc12)c1ccc(Cl)cc1Cl` (single isomer, unassigned) [Example 71, trifluoroacetic acid], for which the concentration for half-maximal inhibition (IC50) was less than 100 nM.
Same read-out and setting: for `C[C@@H](Nc1nc(N2CC([C@H]3CCCN(C4CC(C)(C(=O)O)C4)C3)C2)nc(CO)c1Cl)c1ccc(Cl)cc1Cl` (single isomer, unassigned) [Example 86] the value was less than 100 nM; for `C[C@@H](Nc1nc(N2CC([C@H]3CCCN(CC(=O)N4CCCC4)C3)C2)ncc1Cl)c1ccc(Cl)cc1Cl` [Example 56, 2-[(3R)-3-[1-[5-chloro-4-[[(1R)-1-(2,4-dichlorophenyl)ethyl]amino]pyrimidin-2-yl]azetidin-3-yl]-1-piperidyl]-1-pyrrolidin-1-yl-ethanone; 2,2,2-trifluoroacetic acid], 100 to 500 nM.
Still for that read-out and setting: for `COc1cnc(N2CC([C@H]3CCCN(C4CC(C)(C(=O)O)C4)C3)C2)nc1N[C@H](C)c1ccc(Cl)cc1Cl` (single isomer, unassigned) [Example 83] the value was less than 100 nM.
For the compound `C[C@@H](Nc1cc(C2CC2)nc(N2CC([C@H]3CCCN(C4CC(C)(C(=O)O)C4)C3)C2)n1)c1ccc(Cl)cc1Cl` (single isomer, unassigned) [Example 80], the IC50 was less than 100 nM.
The same measure, in the same setting: for `C[C@@H](Nc1nc(N2CC([C@H]3CCCN([C@H]4C[C@](C)(C(=O)O)C4)C3)C2)nc2ccccc12)c1ccc(Cl)cc1Cl` [Example 94, 3-[(1R,3R)-3-[1-[4-[[(1R)-1-(2,4-dichlorophenyl)ethyl]amino]quinazolin-2-yl]azetidin-3-yl]-1-piperidyl]-1-methyl-cyclobutanecarboxylic acid; 2,2,2-trifluoroacetic acid] the value was less than 100 nM.
